# pEC50: −log10 of the molar value.
# Test system: parasites (ring stage, in human red blood cell culture)
# Assay: Parasite LDH growth assay (antiparasite potency, Parasite Assay)
# Format: cell-based, Plasmodium falciparum
# Conditions: 0.7% rings, 2% haematocrit, 72 hours at 37° C., LDH readout of parasite growth
# How it was run: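 Growth was read by an LDH assay after a freeze–thaw cycle (−80 °C overnight, 4 h thaw at RT). Before that, parasites grew with compound for 72 h at 37 °C under gassed, humidified conditions. The input was a ring-stage culture adjusted to 0.7% parasitemia and 2% haematocrit in serum (5%)/albumax (0.5%)-supplemented RPMI-Hepes.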
row,SMILES,pEC50
1,"CC(C)[C@]1(C)CC(=O)N([C@@H]2CC(C)(C)Oc3ccc(C(=O)N[C@@H]4c5ccccc5OC[C@H]4O)cc32)C(=N)N1 [Example 40A, (R)-N-((3S,4R)-3-hydroxychroman-4-yl)-4-((S)-2-imino-4-isopropyl-4-methyl-6-oxotetrahydropyrimidin-1(2H)-yl)-2,2-dimethylchromane-6-carboxamide]",7.16

# Same assay, conditions: Plasmodium falciparum, Erythrocyte, 72 h, 0.7% rings, 2% haematocrit, 72 hours at 37° C., LDH readout of parasite growth
row,SMILES,pEC50
1,"CCC1(CC)CC(=O)N([C@@H]2CCOc3ccc(C(=O)N[C@@H]4c5cc(C#N)ccc5OC(C)(C)[C@H]4O)cc32)C(=N)N1 [Example 20A, (R)-N-((3S,4R)-6-cyano-3-hydroxy-2,2-dimethylchroman-4-yl)-4-(4,4-diethyl-2-imino-6-oxotetrahydropyrimidin-1(2H)-yl)chromane-6-carboxamide]",9.10
2,"CCC1(CC)CC(=O)N([C@@H]2CCOc3ccc(C(=O)N[C@H]4CC(C)(C)Oc5ccc(C#N)cc54)cc32)C(=N)N1 [Example 21A, (R)-N-((S)-6-cyano-2,2-dimethylchroman-4-yl)-4-(4,4-diethyl-2-imino-6-oxotetrahydropyrimidin-1(2H)-yl)chromane-6-carboxamide]",9.10
3,"CCC1(CC)CC(=O)N([C@@H]2CC3(COC3)Oc3ccc(C(=O)N[C@H]4CC(C)(C)Oc5ccccc54)cc32)C(=N)N1 [Example 22A, (R)-4-(4,4-diethyl-2-imino-6-oxotetrahydropyrimidin-1(2H)-yl)-N-((S)-2,2-dimethylchroman-4-yl)spiro[chromane-2,3′-oxetane]-6-carboxamide]",9.15
4,"CCC1(CC)CC(=O)N([C@@H]2CC3(COC3)Oc3ccc(C(=O)N[C@@H]4c5ccccc5C[C@H]4O)cc32)C(=N)N1 [Example 23A, (R)-4-(4,4-diethyl-2-imino-6-oxotetrahydropyrimidin-1(2H)-yl)-N-((1R,2R)-2-hydroxy-2,3-dihydro-1H-inden-1-yl)spiro[chromane-2,3′-oxetane]-6-carboxamide]",8.30
5,"CCC1(CC)CC(=O)N([C@@H]2CC3(COC3)Oc3ccc(C(=O)N[C@@H]4c5ccccc5OC(C)(C)[C@H]4O)cc32)C(=N)N1 [Example 24A, (R)-4-(4,4-diethyl-2-imino-6-oxotetrahydropyrimidin-1(2H)-yl)-N-((3S,4R)-3-hydroxy-2,2-dimethylchroman-4-yl)spiro[chromane-2,3′-oxetane]-6-carboxamide]",8.03
6,"CCC1(CC)CC(=O)N([C@@H]2CCOc3ccc(C(=O)N[C@@H]4c5cc(F)ccc5OC(C)(C)[C@H]4O)cc32)C(=N)N1 [Example 25A, (R)-4-(4,4-diethyl-2-imino-6-oxotetrahydropyrimidin-1(2H)-yl)-N-((3S,4R)-6-fluoro-3-hydroxy-2,2-dimethylchroman-4-yl)chromane-6-carboxamide]",9.30
7,"CCC1(CC)CC(=O)N([C@@H]2CCOc3ccc(C(=O)N[C@H]4c5cc(F)ccc5OC(C)(C)[C@@H]4O)cc32)C(=N)N1 [Example 25B, (R)-4-(4,4-diethyl-2-imino-6-oxotetrahydropyrimidin-1(2H)-yl)-N-((3R,4S)-6-fluoro-3-hydroxy-2,2-dimethylchroman-4-yl)chromane-6-carboxamide]",7.22
8,"CCC1(CC)CC(=O)N([C@@H]2CCOc3c(Cl)cc(C(=O)N[C@H]4CC(C)(C)Oc5ccccc54)cc32)C(=N)N1 [Example 26A, (R)-8-chloro-4-(4,4-diethyl-2-imino-6-oxotetrahydropyrimidin-1(2H)-yl)-N-((S)-2,2-dimethylchroman-4-yl)chromane-6-carboxamide]",8.89
9,"CCC1(CC)CC(=O)N([C@@H]2CCOc3c(Cl)cc(C(=O)N[C@@H]4CC(C)(C)Oc5ccccc54)cc32)C(=N)N1 [Example 26B, (R)-8-chloro-4-(4,4-diethyl-2-imino-6-oxotetrahydropyrimidin-1(2H)-yl)-N-((R)-2,2-dimethylchroman-4-yl)chromane-6-carboxamide]",6.74
10,"CCC1(CC)CC(=O)N([C@@H]2CCOc3c(C#N)cc(C(=O)N[C@H]4CC(C)(C)Oc5ccccc54)cc32)C(=N)N1 [Example 27A, (R)-8-cyano-4-(4,4-diethyl-2-imino-6-oxotetrahydropyrimidin-1yl)-N-((S)-2,2-dimethylchroman-4-yl)chromane-6-carboxamide]",8.89
11,"CCC1(CC)CC(=O)N([C@@H]2CCOc3c(C#N)cc(C(=O)N[C@@H]4c5ccccc5OC(C)(C)[C@H]4O)cc32)C(=N)N1 [Example 28A, (R)-8-cyano-4-(4,4-diethyl-2-imino-6-oxotetrahydropyrimidin-1(2H)-yl)-N-((3S,4R)-3-hydroxy-2,2-dimethylchroman-4-yl)chromane-6-carboxamide]",8.74
12,"CCC1(CC)CC(=O)N([C@@H]2CCOc3c(Cl)cc(C(=O)N[C@@H]4c5ccccc5OC(C)(C)[C@H]4O)cc32)C(=N)N1 [Example 29A, (R)-8-chloro-4-(4,4-diethyl-2-imino-6-oxotetrahydropyrimidin-1(2H)-yl)-N-((3S,4R)-3-hydroxy-2,2-dimethylchroman-4-yl)chromane-6-carboxamide]",9.00
13,"CCC1(CC)CC(=O)N([C@@H]2CCOc3c(Cl)cc(C(=O)N[C@H]4c5ccccc5OC(C)(C)[C@@H]4O)cc32)C(=N)N1 [Example 29B, (R)-8-chloro-4-(4,4-diethyl-2-imino-6-oxotetrahydropyrimidin-1(2H)-yl)-N-((3R,4S)-3-hydroxy-2,2-dimethylchroman-4-yl)chromane-6-carboxamide]",7.40
14,"CCC1(CC)CC(=O)N([C@@H]2CCOc3ccc(C(=O)N[C@@H]4c5ccccc5OC(C)(C)[C@H]4O)nc32)C(=N)N1 [Example 30A, (R)-4-(4,4-diethyl-2-imino-6-oxotetrahydropyrimidin-1(2H)-yl)-N-((3S,4R)-3-hydroxy-2,2-dimethylchroman-4-yl)-3,4-dihydro-2H-pyrano[3,2-b]pyridine-6-carboxamide]",9.10
15,"CCC1(CC)CC(=O)N([C@@H]2CCOc3ccc(C(=O)N[C@@H]4CC(C)(C)Oc5ccccc54)nc32)C(=N)N1 [Example 31A, (R)-4-(4,4-diethyl-2-imino-6-oxotetrahydropyrimidin-1(2H)-yl)-N-((R)-2,2-dimethylchroman-4-yl)-3,4-dihydro-2H-pyrano[3,2-b]pyridine-6-carboxamide]",7.66
16,"CCC1(CC)CC(=O)N([C@@H]2CCOc3ccc(C(=O)N[C@H]4CC(C)(C)Oc5ccccc54)nc32)C(=N)N1 [Example 31B, (R)-4-(4,4-diethyl-2-imino-6-oxotetrahydropyrimidin-1(2H)-yl)-N-((S)-2,2-dimethylchroman-4-yl)-3,4-dihydro-2H-pyrano[3,2-b]pyridine-6-carboxamide]",9.00
17,"CCC1(CC)CC(=O)N([C@@H]2CC(C)(C)Oc3ccc(C(=O)N[C@H]4CCOc5ccccc54)cc32)C(=N)N1 [Example 33A, (R)-N-((S)-chroman-4-yl)-4-(4,4-diethyl-2-imino-6-oxotetrahydropyrimidin-1(2H)-yl)-2,2-dimethylchromane-6-carboxamide]",7.55
18,"CCC1(CC)CC(=O)N([C@@H]2CC(C)(C)Oc3ccc(C(=O)N[C@@H]4c5ccccc5OC(C)(C)[C@H]4O)cc32)C(=N)N1 [Example 34A, (R)-4-(4,4-diethyl-2-imino-6-oxotetrahydropyrimidin-1(2H)-yl)-N-((3S,4R)-3-hydroxy-2,2-dimethylchroman-4-yl)-2,2-dimethylchromane-6-carboxamide]",8.92
19,"CCC1(CC)CC(=O)N([C@@H]2CC(C)(C)Oc3ccc(C(=O)N[C@@H]4c5ccccc5C[C@H]4O)cc32)C(=N)N1 [Example 35A, (R)-4-(4,4-diethyl-2-imino-6-oxotetrahydropyrimidin-1(2H)-yl)-N-((lR,2R)-2-hydroxy-2,3-dihydro-1H-inden-1-yl)-2,2-dimethylchromane-6-carboxamide]",8.62
20,"CCC1(CC)CC(=O)N([C@@H]2CC(C)(C)Oc3ccc(C(=O)N[C@@H]4c5ccccc5OC[C@@H]4O)cc32)C(=N)N1 [Example 36A, (R)-4-(4,4-diethyl-2-imino-6-oxotetrahydropyrimidin-1(2H)-yl)-N-((3R,4R)-3-hydroxychroman-4-yl)-2,2-dimethylchromane-6-carboxamide]",8.05
21,"CCC1(CC)CC(=O)N([C@@H]2CC(C)(C)Oc3ccc(C(=O)N[C@@H]4c5ccccc5OC[C@H]4O)cc32)C(=N)N1 [Example 36B, (R)-4-(4,4-diethyl-2-imino-6-oxotetrahydropyrimidin-1(2H)-yl)-N-((3 S,4R)-3-hydroxychroman-4-yl)-2,2-dimethylchromane-6-carboxamide]",8.66
22,"CC(C)[C@]1(C)CC(=O)N([C@@H]2CC(C)(C)Oc3ccc(C(=O)N[C@H]4CCOc5ccccc54)cc32)C(=N)N1 [Example 37A, (R)-N-((S)-chroman-4-yl)-4-((S)-2-imino-4-isopropyl-4-methyl-6-oxotetrahydropyrimidin-1(2H)-yl)-2,2-dimethylchromane-6-carboxamide]",7.13
23,"CC(C)[C@]1(C)CC(=O)N([C@@H]2CC(C)(C)Oc3ccc(C(=O)N[C@@H]4c5ccccc5OC(C)(C)[C@H]4O)cc32)C(=N)N1 [Example 38A, (R)-N-((3 S,4R)-3-hydroxy-2,2-dimethylchroman-4-yl)-4-((S)-2-imino-4-isopropyl-4-methyl-6-oxotetrahydropyrimidin-1(2H)-yl)-2,2-dimethylchromane-6-carboxamide]",8.55
24,"CC(C)[C@]1(C)CC(=O)N([C@@H]2CC(C)(C)Oc3ccc(C(=O)N[C@@H]4c5ccccc5C[C@H]4O)cc32)C(=N)N1 [Example 39A, (R)-N-((1R,2R)-2-hydroxy-2,3-dihydro-1H-inden-l-yl)-4-((S)-2-imino-4-isopropyl-4-methyl-6-oxotetrahydropyrimidin-1(2H)-yl)-2,2-dimethylchromane-6-carboxamide]",7.52

# — patent US12350270B2, “Antimalarial agents” (Merck Sharp & Dohme LLC, priority 2019, dated 2025)
